Laboratory results taken from patent publication US20120294837A1, “METHODS OF ISOLATING AND CULTURING MESENCHYMAL STEM CELLS” (UNIVERSITY OF ROCHESTER, priority 2010, published 2012).

Tests used:
cleaved Notch2 (NICD2) = test: Western blot for cleaved, active Notch2 (NICD2) in cultured limb-bud derived MSCs; format: cell-based, mouse; details: DAPT 1 um, cultured overnight, vs absence of DAPT
Procedure: Total protein was isolated from either whole mouse limb-bud tissue or cultured limb-bud derived MSCs using Golden lysis buffer. The cultured limb-bud derived MSCs were plated at the density of 6×10^6 cells in 10 cm dishes and cultured overnight in 10% FBS DMEM media both in the presence and absence of DAPT (1 um). Protein samples (˜100 μg) from each isolation were subsequently separated on 10% SDS-polyacrylamide and transferred to a PVDF membrane. NICD1 and NICD2 cleaved proteins were detected using the bTAN 20 (Notch1) and C651.6DdHN (Notch2) primary antibodies (0.4 ug/ml) and then further probed with appropriate secondary antibody (1:3000). Anti-β-actin antibody (Sigma; St. Louis, Mo.) was used as a control for equal protein loading. Immunoblots were detected using Supersignal west femto maximum sensitivity substrate (Pierce; Rockford, Ill.).
To determine which Notch receptor is active in the limb-bud mesenchyme, total protein was isolated from cultured MSCs in the presence and absence of the Notch inhibitor, N-(3,5-difluorophenylacetyl-L-alanyl)]-S-phenylglycine t-ButylEster (DAPT, Calbiochem; San Diego, Calif.), or directly from wild-type E11.5 whole limb-bud tissue, and performed western blot analyses using Notch1 and Notch2 antibodies that can detect the cleaved or active (NICD) form of the receptor. […]

limb-bud derived MSCs [1] = test: Limb-bud MSC osteogenic monolayer differentiation (alkaline phosphatase staining, real-time RT-PCR); format: cell-based, mouse; details: DAPT 1 μM, 21 days
Procedure: (§1) Limb-bud derived MSCs were isolated from E11.5 CD1 mouse embryos as previously described (Zhang et al., Bone 34:809-17 (2004)). For chondrogenic differentiation, MSCs were seeded in micromass (1×10^5 cells in […]) in 12-well plates for 1.5 hours before adding standard media, media containing DAPT (1 μM), or media containing Hes1 shRNA lentivirus. Cells were cultured for a time-course of 6 hours, 3, 5, and 7 days prior to harvest for cartilage staining (1% Alcian blue/3% glacial acetic acid) or total RNA isolations. Limb-bud derived MSCs were also cultured in monolayer for 21 days and treated with either osteogenic (10 nM dexamethasone; 50 μM ascorbic acid; 10 mM β-glycerolphosphate) or adipogenic medium (Millipore; Billerica, Mass.) in the presence and absence of DAPT. Fixed MSCs were stained for osteoblastic differentiation using an alkaline phosphatase stain (nitro blue tetrazolium chloride/5-bromo-4-chloro-3-indolyhosphate P-toluidine salt) or adipogenic differentiation using an Oil Red-O staining solution (0.36%). Total RNA was isolated from monolayer cultures at day 21 for use in real-time RT-PCR analyses.
(§2) Embryonic limb-bud tissues or micromass cultures were frozen in liquid nitrogen and then homogenized in Trizol Reagent (Invitrogen; Carlsbad, Calif.) via rendering through a 25-gauge needle and syringe. Total cellular RNA was extracted following the manufacture's protocol. RNA was quantified using a NanoDrop spectrophotometer (NanoDrop; Wilmington, Del.) and equal concentrations of total RNA were pooled for synthesis of cDNA. Total RNA (1 μg) was reverse transcribed using the iScript™ cDNA synthesis kit (Bio-Rad; Hercules, Calif.) according to the manufacture's instructions. Reverse transcribed cDNA was analyzed by real-time RT-PCR with mouse-specific primers for: Sox9, Runx2, Col2a1, Agc1, Col1a1, Ap, Oc, Pparγ, Jagged1, Jagged2, Delta-like1, Delta-like3, Delta-like4, Notch1, Notch2, Notch3, Notch4, Hes1, Hes3, Hes5, Hes7, Hey1, Hey2, HeyL, and CyclinD1. Primers were designed using Applied Biosystems software (Applied Biosystems; Foster City, Calif.). […]

limb-bud derived MSCs [2] = test: Limb-bud MSC micromass chondrogenic differentiation (Alcian blue staining, real-time RT-PCR); format: cell-based, mouse
Procedure: as §1
Embryonic limb-bud tissues or micromass cultures were frozen in liquid nitrogen and then homogenized in Trizol Reagent (Invitrogen; Carlsbad, Calif.) via rendering through a 25-gauge needle and syringe. Total cellular RNA was extracted following the manufacture's protocol. RNA was quantified using a NanoDrop spectrophotometer (NanoDrop; Wilmington, Del.) and equal concentrations of total RNA were pooled for synthesis of cDNA. Total RNA (1 μg) was reverse transcribed using the iScript™ cDNA synthesis kit (Bio-Rad; Hercules, Calif.) according to the manufacture's instructions. Reverse transcribed cDNA was analyzed by real-time RT-PCR with mouse-specific primers for: Sox9, Runx2, Col2a1, Agc1, Col1a1, Ap, Oc, Pparγ, Jagged1, Jagged2, Delta-like1, Delta-like3, Delta-like4, Notch1, Notch2, Notch3, Notch4, Hes1, Hes3, Hes5, Hes7, Hey1, Hey2, HeyL, and CyclinD1. Primers were designed using Applied Biosystems software (Applied Biosystems; Foster City, Calif.). Sequences are available upon request. DNA amplification was achieved using the SYBR® Green PCR Master Mix (Applied Biosystems; Foster City, Calif.) and the RotorGene real-time DNA amplification system (Corbett Research; Sydney, Australia). Gene expression was normalized to β-actin expression levels and then normalized to control samples.
To determine the role of Notch signaling in MSCs, Notch loss-of-function assays were performed on E11.5 limb-bud derived MSC cultures using the Notch inhibitor, DAPT. […] The effect of DAPT was also assessed on the expression of the chondrogenic markers Sox9, Col2a1, and Agc1 via real-time RT-PCR.

limb-bud derived MSCs [3] = test: Limb-bud MSC adipogenic monolayer differentiation (Oil Red-O staining, real-time RT-PCR); format: cell-based, mouse; details: DAPT 1 μM, 21 days
Procedure: as §1, §2

hMSCs [4] = test: BrdU ELISA proliferation assay of hMSCs on Jag1 coated plates; format: cell-based, human; details: passage 3 hMSCs, 24 hours, vs IgG
Procedure: (§3) To determine if Notch signaling can induce important regulators of stem cell maintenance, passage 3 hMSCs were cultured on Jag1 and IgG coated plates for 24 hours and isolated RNA for real-time RT-PCR analyses (FIG. 11B). […] Therefore, Jag1/Notch signaling regulated hMSC maintenance and expansion via this network of stem cell factors. Finally, the same culture system and passage 3 hMSCs were used to determine if Jag1 regulated the proliferation of hMSCs over a relatively short time interval. BrdU ELISA assays were performed for hMSCs cultured on Jag1 and IgG coated plates for 24 hours.

hMSCs [5] = test: Real-time RT-PCR of Notch target and stem cell regulator genes in hMSCs on Jag1 coated plates; format: cell-based, human; details: Jag1 coated plates 10 μg/ml, passage 3 hMSCs, 24 hours
Procedure: as §3

Notch signaling in hMSCs = test: RBPjP-dependent Notch luciferase reporter in hMSCs cultured on Jag1 coated plates; format: cell-based, human
Procedure: This lentivirus expresses GFP allowing determination of infection efficiency after 24 hours and during multiple passages of the cells. […] A protocol for coating culture dishes with the recombinant Jag1 protein using 5 μg/ml, 10 μg/ml, and 15 μg/ml concentrations of Jag1 and 10 μg/ml concentration of IgG as controls was established. […] Next, to confirm that this Jag1 coating technology induced Notch signaling in hMSCs, hMSCs transfected with the RBPjP-dependent Notch luciferase reporter were cultured on 5 μg/ml, 10 μg/ml, and 15 μg/ml Jag1 and IgG coated plates.

Compound | abundance of the cleaved Notch2 (NICD2) (cleaved Notch2 (NICD2)) | alkaline phosphatase staining (limb-bud derived MSCs [1]; osteogenic media) | osteoblastic differentiation of MSCs (limb-bud derived MSCs [1]; osteogenic media) | expression of osteoblast marker genes Col1a1, AP, and Oc (limb-bud derived MSCs [1]; real-time RT-PCR) | cartilage nodule formation (limb-bud derived MSCs [2]; 1 μM DAPT, micromass culture, Alcian blue) | Agc1 expression (limb-bud derived MSCs [2]; DAPT 1 μM, day 7, real-time RT-PCR) | Sox9, Col2a1, and Agc1 expression (limb-bud derived MSCs [2]; DAPT 1 μM, first 3-5 days of culture, vs untreated cultures, real-time RT-PCR) | limb-bud MSC differentiation (limb-bud derived MSCs [2]; continuous DAPT 1 μM vs vehicle, chondrogenic, osteogenic and adipogenic cultures (FIG. 2A-2C)) | Oil Red-0 staining (limb-bud derived MSCs [3]; adipogenic media) | adipogenic differentiation of MSCs (limb-bud derived MSCs [3]; adipogenic media) | expression of the adipocyte marker gene Pparγ (limb-bud derived MSCs [3]; real-time RT-PCR) | increase of BrdU incorporation as compared to controls (hMSCs [4]) | Oct4 expression compared to Sox2 and Nanog (hMSCs [5]) | Hes1 expression over controls (hMSCs [5]; vs IgG) | expression of Oct4, Sox2, and Nanog (hMSCs [5]; vs IgG) | hMSC growth, cell size, shape, cell survival on coated plates (Notch signaling in hMSCs; Jag1 coated plates) | luciferase activity of Notch reporter (Notch signaling in hMSCs; plates coated with 10 μg/ml Jag1, 5, 10 and 15 μg/ml compared, IgG control)
C[C@H](NC(=O)Cc1cc(F)cc(F)c1)C(=O)N[C@H](C(=O)OC(C)(C)C)c1ccccc1 [DAPT] | reduce the abundance of the cleaved Notch2 (NICD2) | elevated alkaline phosphatase staining | enhanced normal osteoblastic differentiation | significant increase | significantly enhanced cartilage nodule formation | significantly reduced | enhanced | enhances limb-bud MSC differentiation without biasing lineage determination | elevated Oil Red-0 staining | enhanced normal adipogenic differentiation | increase | – | – | – | – | – | –
Jag1: recombinant Jag1 protein, Notch ligand, coated on culture dishes to activate Notch signaling | – | – | – | – | – | – | – | – | – | – | – | more than 50% | only mildly enhanced | approximately 7 fold | induced the expression | no obvious changes in cell size, shape, or cell survival | maximal luciferase activity
